Active and inactive are the calls of the source. The rule behind the calls is not given here.
Key:
[1] = tested on: Mus musculus; assay: Toxicity in BALB/c nude mouse xenografted with human Bel7402 cells assessed as survival at 60 mg/kg, ip administered once in a week for two weeks starting from 6 days post tumor transplantation measured every 3 days for 21 days; assay type: organism-based; settings: in vivo, 504 h
[2] = tested on: A549; assay: Induction of apoptosis in human A549 cells assessed as early apoptotic cells at 25 nM after 24 hrs by Annexin V-FITC/propidium iodide staining based flow cytometry (reference value: 0.50%); assay type: functional
[3] = tested on: A549; assay: Antiproliferative activity against human A549 cells after 96 hrs by MTT assay; assay type: functional, cell-based; settings: A549, 96 h
[4] = tested on: Mus musculus; assay: Toxicity in BALB/c nude mouse xenografted with human BGC823 cells assessed as tumor volume at 60 mg/kg, ip administered once in a week for two weeks starting from 6 days post tumor transplantation and measured every 3 days during compound dosing for 15 days (reference value: […]); settings: in vivo, 360 h
[5] = tested on: A549; assay: Induction of apoptosis in human A549 cells assessed as necrotic cells at 75 nM after 24 hrs by Annexin V-FITC/propidium iodide staining based flow cytometry (reference value: 7.62%); assay type: functional
[6] = tested on: Mus musculus; assay: Toxicity in Kunming mouse implanted with mouse H22 cells assessed as survival at 60 mg/kg, ip administered twice; assay type: organism-based; settings: in vivo
[7] = tested on: A549; assay: Induction of apoptosis in human A549 cells assessed as caspase-3 level at 8 to 75 nM by Western blot method; assay type: functional, cell-based
[8] = tested on: Mus musculus; assay: Toxicity in BALB/c nude mouse xenografted with human BGC823 cells assessed as tumor volume at 30 mg/kg, ip administered once in a week for two weeks starting from 6 days post tumor transplantation and measured every 3 days during compound dosing for 15 days (reference value: […]); settings: in vivo, 360 h
[9] = tested on: A549; assay: Cell cycle arrest in human A549 cells assessed as accumulation at G2/M phase at 8 nM after 24 hrs by propidium iodide staining based flow cytometry (reference value: 8.36%); assay type: functional
[10] = tested on: BGC-823; assay: Antiproliferative activity against human BGC823 cells after 96 hrs by MTT assay; assay type: functional, cell-based; settings: BGC-823, 96 h
[11] = tested on: Mus musculus; assay: Toxicity in BALB/c nude mouse xenografted with human BGC823 cells assessed as mouse survival at 30 mg/kg, ip administered once in a week for two weeks starting from 6 days post tumor transplantation; assay type: organism-based; settings: in vivo, 144 h
[12] = tested on: A549; assay: Induction of apoptosis in human A549 cells assessed as cell shrinkage after 24 hrs by phase contrast microscopy; assay type: functional, cell-based
[13] = tested on: Bel-7402; assay: Antitumor activity against human Bel7402 cells xenografted in BALB/c nude mouse assessed as tumor growth inhibition at 60 mg/kg, ip administered once in a week for two weeks starting from 6 days post tumor transplantation measured 27 to 30 days post tumor transplantation relative to control; assay type: functional; settings: Bel-7402, ip, read-out: TGI
[14] = tested on: Mus musculus; assay: Toxicity in BALB/c nude mouse xenografted with human BGC823 cells assessed as mouse survival at 60 mg/kg, ip administered once in a week for two weeks starting from 6 days post tumor transplantation; assay type: organism-based; settings: in vivo, 144 h
[15] = tested on: A549; assay: Induction of apoptosis in human A549 cells assessed as late apoptotic cells at 75 nM after 24 hrs by Annexin V-FITC/propidium iodide staining based flow cytometry (reference value: 2.47%); assay type: functional
[16] = tested on: H22; assay: Antitumor activity against mouse H22 cells implanted in Kunming mouse assessed as tumor growth inhibition at 60 mg/kg, ip administered twice relative to control; assay type: functional; settings: read-out: TGI
[17] = tested on: A549; assay: Induction of apoptosis in human A549 cells assessed as viable cells at 25 nM after 24 hrs by Annexin V-FITC/propidium iodide staining based flow cytometry (reference value: 89.41%); assay type: functional; settings: A549, 24 h, read-out: Activity
[18] = tested on: A549; assay: Induction of apoptosis in human A549 cells assessed as decrease in Bcl-2 protein level at 8 to 75 nM by Western blot method; assay type: functional, cell-based
[19] = tested on: BGC-823; assay: Antitumor activity against human BGC823 cells xenografted in BALB/c nude mouse assessed as tumor volume at 30 mg/kg, ip administered once in a week for two weeks starting from 6 days post tumor transplantation measured 27 to 30 days post tumor transplantation relative to control; assay type: functional
[20] = tested on: Mus musculus; assay: Toxicity in Kunming mouse implanted with mouse H22 cell assessed as survival at 40 mg/kg, ip administered on day 1 and day 5; assay type: organism-based; settings: in vivo
[21] = tested on: Mus musculus; assay: Toxicity in Kunming mouse implanted with mouse H22 cells assessed as body weight at 60 mg/kg, ip administered twice (reference value: 31.1 g); assay type: organism-based; settings: in vivo
[22] = tested on: Mus musculus; assay: Toxicity in Kunming mouse implanted with mouse H22 cells assessed as body weight at 40 mg/kg, ip administered on day 1 and day 5 (reference value: 32.5 g); assay type: organism-based; settings: in vivo
[23] = tested on: A2780; assay: Antiproliferative activity against human A2780 cells after 96 hrs by MTT assay; assay type: functional, cell-based; settings: A2780, 96 h
[24] = tested on: A549; assay: Cell cycle arrest in human A549 cells assessed as accumulation at G0/G1 phase at 8 nM after 24 hrs by propidium iodide staining based flow cytometry (reference value: 58.84%); assay type: functional
[25] = tested on: Mus musculus; assay: Antitumor activity in BALB/c nude mouse xenografted with human Bel7402 cells assessed as tumor volume at 30 mg/kg, ip administered once in a week for two weeks starting from 6 days post tumor transplantation measured every 3 days for 21 days (reference value: 511 mm3); settings: in vivo, 504 h
[26] = tested on: A549; assay: Induction of apoptosis in human A549 cells assessed as necrotic cells at 8 nM after 24 hrs by Annexin V-FITC/propidium iodide staining based flow cytometry (reference value: 7.62%); assay type: functional
[27] = tested on: HCT-8; assay: Antiproliferative activity against human HCT8 cells after 96 hrs by MTT assay; assay type: functional, cell-based; settings: HCT-8, 96 h
[28] = tested on: A549; assay: Cell cycle arrest in human A549 cells assessed as accumulation at S phase at 75 nM after 24 hrs by propidium iodide staining based flow cytometry (reference value: 32.80%); assay type: functional
[29] = tested on: A549; assay: Cell cycle arrest in human A549 cells assessed as accumulation at G2/M phase at 25 nM after 24 hrs by propidium iodide staining based flow cytometry (reference value: 8.36%); assay type: functional

`CCc1c2c(nc3ccccc13)-c1cc3c(c(=O)n1C2)COC(=O)[C@@]3(CC)OC(=O)Cn1cc(F)c(=O)[nH]c1=O` was tested, and the Activity [1] was “Non-Toxic”, the Activity [2] was 10.07% and the IC50 [3] was 0.027 µM. For the same molecule, the tumor volume [4] was 143 mm³, the Activity [5] was 10.77% and the Activity [6] was “Non-Toxic”. The Activity [7] was “Active”, the tumor volume [8] was 334 mm³ and the Activity [9] was 31.21%. For the same molecule, the IC50 [10] was 0.032 µM, the Activity [11] was “Non-Toxic” and the Activity [12] was “Dose-dependent effect”. For the same molecule, the inhibition in vivo at 60 mg/kg [13] was 81.5%, the Activity [14] was “Non-Toxic” and the Activity [15] was 34.98%. For the same molecule, the inhibition in vivo at 60 mg/kg [16] was 64.5%, the viability at 0.025 µM [17] was 53.4% and the Activity [18] was “Active”. For the same molecule, the T/C [19] was 12.65%, the Activity [20] was “Non-Toxic” and the Activity [21] was 27.2 g. It also gave an Activity [22] of 27.3 g, an IC50 [23] of 0.147 µM and an Activity [24] of 32.28%. It also gave a tumor volume [25] of 231 mm³, an Activity [26] of 3.74% and an IC50 [27] of 0.007 µM. The Activity [28] was 30.76% and the Activity [29] was 71.74%.
